The text below walks through data of US9567301B2, “Pyrrol-1-yl benzoic acid derivatives useful as myc inhibitors” (Whitehead Institute for Biomedical Research, priority 2012, dated 2017).

Sequence of c-Myc/Max/Ebox DNA (P01106 16-454): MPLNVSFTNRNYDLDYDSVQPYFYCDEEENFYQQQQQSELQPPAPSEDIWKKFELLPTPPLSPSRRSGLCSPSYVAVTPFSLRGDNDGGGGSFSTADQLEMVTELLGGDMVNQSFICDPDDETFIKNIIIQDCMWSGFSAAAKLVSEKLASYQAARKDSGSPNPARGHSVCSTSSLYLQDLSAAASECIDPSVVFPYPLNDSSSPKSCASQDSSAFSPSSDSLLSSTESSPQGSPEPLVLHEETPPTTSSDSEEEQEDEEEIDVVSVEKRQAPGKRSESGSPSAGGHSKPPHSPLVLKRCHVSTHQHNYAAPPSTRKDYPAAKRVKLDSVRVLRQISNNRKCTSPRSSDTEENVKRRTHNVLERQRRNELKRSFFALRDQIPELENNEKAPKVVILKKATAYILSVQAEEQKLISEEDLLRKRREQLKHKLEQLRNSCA

This test concerns the target c-Myc/Max/Ebox DNA (Homo sapiens, UniProt P01106). As to the kind of experiment: c-Myc/Max/Ebox DNA AlphaScreen assay. Format: binding. Also noted: An exemplary assay uses full-length human c-Myc and Max proteins; his6 (cleaved yes); made in house. The following applies: c-Myc/Max/Ebox DNA AlphaScreen; NA: inactive under assay conditions; read-out: Biochemical IC50. Here is the method:
This protocol was used to generate the biochemical data in Table 2 and FIG. 11. The primary AlphaScreen assay is amenable to 384-well and 1536-well plate formats for HTS. Human his6-c-Myc and his6-Max were used with biotinylated DNA containing a single Ebox sequence (biotin[…]) purchased from MWG Operon. Free c-Myc was generated from his6-c-Myc through thrombin cleavage of the his6 tag. For 384-well plate assays, 10 μL of a 2× solution of free c-Myc (25 nM final), Ni++-coated Acceptor Bead (25 μg/ml final), and biotinylated Ebox oligo (10 nM final) were added to 384-well plates with a Biotek EL406 liquid handler. 100 nL of compounds from stock plates were added by pin transfer using a Janus Workstation (PerkinElmer), allowing the compounds to interact with c-Myc prior to c-Myc binding with Max. In the current assay, DMSO was not allowed to exceed 2% v/v of the assay. 10 μl of 2× master mix containing streptavidin-coated donor beads (25 μg/ml final) and his6-Max (1.25 nM final) were added. AlphaScreen measurements were performed on an Envision 2104 (PerkinElmer) utilizing the manufacturer's protocol. The assay can also be performed in 1536-plate format with 8 μL total volume using two 4 μL additions (instead of […] and 10 μL respectively).
Assays are performed with minor modifications from the manufacturer's protocol (PerkinElmer). Both master mixes were made in room temperature assay buffer (50 mM HEPES, 150 mM NaCl, 0.2% w/v BSA, 0.02% w/v Tween20, 40 μg/ml glycogen, 500 μM DTT, pH 8.0, DTT and glycogen added fresh). Alpha beads were added to respective master solutions and wrapped in foil. All subsequent steps were performed in low light conditions. Solution 1: 2× solution of components with final concentrations of cMyc (25 nM), Ni-coated Acceptor Bead (25 μg/ml), and biotinylated Ebox oligo (10 nM). Solution 2: 2× solution of streptavidin-coated donor beads (25 μg/ml final) and his6-Max (1.25 nM final). […] Solution 1 were added to 384-well plate (AlphaPlate-384, PerkinElmer) with Biotek EL406 liquid handler and the plates were centrifuged at 1000 rpm for 1 minute. 100 nL of compounds from stock plates were added by pin transfer using a Janus Workstation. 10 μL Solution 2 were added with the liquid handler. Plates were sealed with foil to block light exposure and prevent evaporation. Plates were centrifuged at 1000 rpm for 1 minute followed by 2 hour incubation. AlphaScreen measurements were performed on an Envision 2104 utilizing the manufacturer's protocol. Excitation was at 680 nm for donor bead release of singlet oxygen and emission was read with a bandpass filter from 520-620 nm. Glycogen: Roche Diagnostics #10901393001. Plate 1536: Perkin Elmer, 6004350. Plate 384: Perkin Elmer, 6005350. Nickel-His Alpha Beads: 6760619R.
Regarding `Cc1ccc(C)n1-c1cccc(C(=O)O)c1` [Compound 2], the IC50 stood at 74.5 µM. Next, `Cc1ccc(C)n1-c1ccc(C(=O)O)cc1` [Compound 3]: 287 µM; `Cc1ccc(C)n1-c1cc(C(=O)O)ccc1O` [Compound 4]: 34.1 µM; `Cc1ccc(C)n1-c1ccc(C(=O)O)c(O)c1` [Compound 5]: 4.29 µM.

With `COC(=O)c1ccc(-n2c(C)ccc2C)cc1O` [Compound 18], the IC50 was found to be 1.54 µM. The figure for `O=C(O)c1ccccc1-n1c(-c2ccccc2)cc2c1CCCC2=O` [Compound 29] is 252 µM; for `O=C(O)c1cc(-n2cccc2)ccc1N1CCOCC1` [Compound 30] it is 273 µM. The figure for `CCCC(=O)Nc1ccc(N2CCCCCC2)cc1C(=O)O` [Compound 31] is 172 µM. Next, `CCCCC(=O)Nc1ccc(N2CCC(C)CC2)c(C(=O)O)c1` [Compound 32]: 881 µM; `CC(=O)Nc1ccc(N2CCCCCC2)c(C(=O)O)c1` [Compound 33]: 171 µM. In the case of `CC(=O)Nc1ccc(N2CCCC(C)C2)c(C(=O)O)c1` (stereo not drawn) [Compound 34], the IC50 amounted to 191 µM.

Regarding `Cc1ccc(C)n1-c1ccc(Cl)cc1C(=O)O` [Compound 35], the IC50 was determined as 31.3 µM. Next, `Cc1ccc(C)n1-c1ccc(Br)cc1C(=O)O` [Compound 36]: 64.7 µM; `COc1cc(C(=O)O)c(-n2c(C)ccc2C)cc1OC` [Compound 37]: 62.7 µM; `Cc1ccc(C)n1-c1cc(Cl)ccc1C(=O)O` [Compound 38]: 63.7 µM. As for `CC(=O)Nc1ccc(-n2c(C)ccc2C)c(C(=O)O)c1` [Compound 40], the IC50 came out at 34.4 µM. Next, `Cc1ccc(-c2ccccc2)n1-c1ccccc1C(=O)O` [Compound 41]: 324 µM. As to `Cc1cc2c(n1-c1cccc(C(=O)O)c1)CC(C)(C)CC2=O` [Compound 42], the IC50 is 697 µM.

Regarding `CC1(C)CC(=O)c2cc(CC(=O)O)n(-c3cccc(C(=O)O)c3)c2C1` [Compound 43], the IC50 worked out at 197 µM. Turning to `Cc1ccc(C(=O)O)cc1-n1c(C)cc(CN2CCC(N)(C(=O)O)C2)c1C` (stereo not drawn) [Compound 44], the IC50 is 194 µM. Next, `Cc1ccc(C(=O)O)cc1-n1c(C)cc(CN2C[C@H](N(C)C)C[C@H]2CO)c1C` [Compound 45]: 115 µM; `Cc1cc(/C=C2\C(=O)NC(=O)N(C)C2=O)c(C)n1-c1cccc(C(=O)O)c1` [Compound 46]: 76.8 µM. Next, `CC(=O)c1cc(C)n(-c2ccc(C(=O)O)cc2)c1C` [Compound 47]: 166 µM; `Cc1cc2c(n1-c1ccc(C(=O)O)cc1)CCCCC2` [Compound 48]: 51.8 µM; `Cc1c(-c2ccccc2)c2c(n1-c1ccc(C(=O)O)cc1)CCCC2` [Compound 49]: 42 µM. The figure for `Cc1cc2c(n1-c1ccc(C(=O)O)cc1)CC(C)(C)CC2=O` [Compound 50] is 446 µM; for `CC1(C)CC(=O)c2cc(CC(=O)O)n(-c3ccc(C(=O)O)cc3)c2C1` [Compound 51] it is 523 µM; for `Cc1cc(/C=C(\C#N)C(=O)Nc2ccc(O)cc2)c(C)n1-c1ccccc1C(=O)O` [Compound 52] it is 36.2 µM. As for `Cc1ccccc1N1C(=O)NC(=O)/C(=C\c2cc(C)n(-c3ccccc3C(=O)O)c2C)C1=O` [Compound 53], the IC50 is 2510 µM. Next, `Cc1cc(/C=N/NC(N)=S)c(C)n1-c1ccccc1C(=O)O` [Compound 54]: 16.3 µM; `Cc1cc(/C=C2\C(=O)NC(=O)N(c3ccc(F)cc3)C2=O)c(C)n1-c1ccccc1C(=O)O` [Compound 55]: 58.5 µM; `Cc1cc(/C=C2\SC(=O)N(C)C2=O)c(C)n1-c1ccccc1C(=O)O` [Compound 56]: 103 µM. Regarding `Cc1cc(/C=C2\SC(=O)N(C)C2=O)c(C)n1-c1ccccc1C(=O)O` [Compound 57], the IC50 was 92.2 µM. The figure for `Cc1cc(/C=C(/C#N)C(=O)NCCc2c[nH]c3ccccc23)c(C)n1-c1ccccc1C(=O)O` [Compound 58] is 135 µM; for `Cc1cc(/C=C(/C#N)c2nc3ccccc3[nH]2)c(C)n1-c1ccccc1C(=O)O` [Compound 59] it is 125 µM; for `Cc1cccc(C)c1-c1ccccc1C(=O)O` [Compound 60] it is 89.1 µM.

In the case of `Cc1cc(C(=O)N/N=C/c2ccccc2)c(C)n1-c1ccccc1C(=O)O` [Compound 61], the IC50 turned out to be 49.2 µM. In the case of `Cc1ccc(C)n1-c1cc(C(=O)NCCc2ccc(O)c(O)c2)ccc1C(=O)O` [Compound 73], the IC50 worked out at 33.4 µM. Take `Cc1ccc(C)n1-c1cc(C(=O)N/N=C/c2c[nH]cn2)ccc1C(=O)O` [Compound 78]: the IC50 is 1.75 µM. Regarding `Cc1ccc(C)n1-c1cc(C(=O)N/N=C/c2cccc(B(O)O)c2)ccc1C(=O)O` [Compound 82], the IC50 is 2.95 µM.

`Cc1ccc(C)n1-c1cc(C(=O)N/N=C/c2ccc(O)cc2)ccc1C(=O)O` [Compound 83]: the IC50 was 6.85 µM.

As to `Cc1ccc(C)n1-c1cc(C(=O)N/N=C/c2ccc(S(=O)(=O)O)o2)ccc1C(=O)O` [Compound 84], the half-inhibitory concentration (IC50) came out at 0.534 µM. The figure for `Cc1ccc(C)n1-c1cc(C(=O)N/N=C/c2cccnc2)ccc1C(=O)O` [Compound 86] is 5.97 µM; for `Cc1ccc(C)n1-c1cc(C(=O)N/N=C/c2c[nH]c3ccc(F)cc23)ccc1C(=O)O` [Compound 95] it is 23.3 µM.

Consider `Cc1ccc(C)n1-c1cc(C(=O)N/N=C/c2ccc(-c3cncnc3)cc2)ccc1C(=O)O` [Compound 102], for which the IC50 was found to be 26.5 µM. Next, `Cc1ccc(C)n1-c1cc(C(=O)N/N=C/c2ccc3nccnc3c2)ccc1C(=O)O` [Compound 104]: 7.11 µM. For `Cc1ccc(C)n1-c1cc(C(=O)N/N=C\c2ccc(O)c(F)c2)ccc1C(=O)O` [Compound 117], the IC50 was 6.52 µM. As to `Cc1ccc(C)n1-c1cc(C(=O)N/N=C\c2cc(F)c(C(=O)O)c(F)c2)ccc1C(=O)O` [Compound 118], the IC50 is 0.48 µM. The figure for `Cc1ccc(C)n1-c1cc(C(=O)N/N=C/c2cccc(C(=O)O)c2)ccc1C(=O)O` [Compound 120] is 0.393 µM.

As for `Cc1ccc(C)n1-c1cc(C(=O)N/N=C/c2ccccc2)ccc1C(=O)O` [Compound 121], the IC50 was found to be 7.69 µM. The figure for `Cc1ccc(C)n1-c1cc(C(=O)N/N=C/c2ccc(C(=O)O)o2)ccc1C(=O)O` [Compound 124] is 0.708 µM; for `Cc1ccc(C)n1-c1cc(C(=O)N/N=C/c2cc(C(=O)O)ccc2F)ccc1C(=O)O` [Compound 125] it is 1.25 µM; for `Cc1c2ccccc2c(C)n1-c1ccccc1C(=O)O` [Compound 137] it is 57.8 µM. Consider `CN(C)c1ccc(/N=N/c2ccccc2C(=O)O)cc1` [Compound 154], for which the IC50 came to 43.4 µM. Next, `CN1CCN(c2ccccc2C(=O)O)CC1` [Compound 156]: 346 µM; `Cc1ccc(C)n1-c1cc(C(=O)N2CCc3ccc(C(=O)O)cc3C2)ccc1C(=O)O` [Compound 165]: 0.343 µM; `Cc1ccc(C)n1-c1cc(C(=O)NNC(=O)c2cccc(C(=O)O)c2)ccc1C(=O)O` [Compound 166]: 1.89 µM.
